According to patent publication US9637472B2, “Substituted 6,5-fused bicyclic heteroaryl compounds” (Epizyme, Inc., priority 2011, dated 2017):

Molecular target: EZH2 (Homo sapiens (Human), UniProt Q15910)
Test: PRC2 enzyme assay on peptide substrates
Assay type: biochemical
Conditions: PRC2 enzyme assays on peptide substrates; 4 nM enzyme, 30 min preincubation at 25° C.; read-out: EZH2 IC50

EZH2, sequence (Q15910 other isoform, or with tags, fused parts or gaps): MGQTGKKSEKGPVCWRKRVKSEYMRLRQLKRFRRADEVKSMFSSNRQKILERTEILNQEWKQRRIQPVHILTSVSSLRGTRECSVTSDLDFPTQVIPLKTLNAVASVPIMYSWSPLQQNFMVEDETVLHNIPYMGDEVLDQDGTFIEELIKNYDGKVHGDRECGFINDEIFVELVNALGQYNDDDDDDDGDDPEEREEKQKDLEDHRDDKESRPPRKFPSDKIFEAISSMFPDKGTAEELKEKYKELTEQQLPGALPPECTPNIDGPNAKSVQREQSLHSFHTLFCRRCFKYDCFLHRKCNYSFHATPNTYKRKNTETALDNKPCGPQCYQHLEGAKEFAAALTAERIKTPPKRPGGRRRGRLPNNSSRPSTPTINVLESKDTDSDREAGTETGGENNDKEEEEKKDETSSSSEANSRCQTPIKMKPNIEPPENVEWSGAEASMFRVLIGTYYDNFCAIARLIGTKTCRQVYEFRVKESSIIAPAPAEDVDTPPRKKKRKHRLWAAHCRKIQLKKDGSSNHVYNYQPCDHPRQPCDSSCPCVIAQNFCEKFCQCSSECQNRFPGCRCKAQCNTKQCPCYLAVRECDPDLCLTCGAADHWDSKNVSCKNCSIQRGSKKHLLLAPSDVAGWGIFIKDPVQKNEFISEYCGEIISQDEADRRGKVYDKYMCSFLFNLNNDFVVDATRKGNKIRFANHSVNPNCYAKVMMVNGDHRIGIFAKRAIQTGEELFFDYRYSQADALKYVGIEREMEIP
EZH2, sequence (O75530 whole entry partner): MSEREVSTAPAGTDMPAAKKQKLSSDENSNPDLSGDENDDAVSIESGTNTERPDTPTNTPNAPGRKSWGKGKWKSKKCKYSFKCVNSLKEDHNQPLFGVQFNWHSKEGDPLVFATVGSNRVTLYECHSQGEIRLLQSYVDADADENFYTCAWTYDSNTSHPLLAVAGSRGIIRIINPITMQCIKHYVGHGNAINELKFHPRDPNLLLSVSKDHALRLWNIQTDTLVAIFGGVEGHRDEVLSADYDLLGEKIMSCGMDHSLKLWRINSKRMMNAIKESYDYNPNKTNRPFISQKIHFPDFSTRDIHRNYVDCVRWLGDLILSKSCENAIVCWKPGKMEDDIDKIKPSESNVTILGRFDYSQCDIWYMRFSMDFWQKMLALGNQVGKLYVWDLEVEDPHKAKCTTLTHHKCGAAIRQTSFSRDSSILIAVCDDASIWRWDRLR
EZH2, sequence (Q15022 whole entry partner): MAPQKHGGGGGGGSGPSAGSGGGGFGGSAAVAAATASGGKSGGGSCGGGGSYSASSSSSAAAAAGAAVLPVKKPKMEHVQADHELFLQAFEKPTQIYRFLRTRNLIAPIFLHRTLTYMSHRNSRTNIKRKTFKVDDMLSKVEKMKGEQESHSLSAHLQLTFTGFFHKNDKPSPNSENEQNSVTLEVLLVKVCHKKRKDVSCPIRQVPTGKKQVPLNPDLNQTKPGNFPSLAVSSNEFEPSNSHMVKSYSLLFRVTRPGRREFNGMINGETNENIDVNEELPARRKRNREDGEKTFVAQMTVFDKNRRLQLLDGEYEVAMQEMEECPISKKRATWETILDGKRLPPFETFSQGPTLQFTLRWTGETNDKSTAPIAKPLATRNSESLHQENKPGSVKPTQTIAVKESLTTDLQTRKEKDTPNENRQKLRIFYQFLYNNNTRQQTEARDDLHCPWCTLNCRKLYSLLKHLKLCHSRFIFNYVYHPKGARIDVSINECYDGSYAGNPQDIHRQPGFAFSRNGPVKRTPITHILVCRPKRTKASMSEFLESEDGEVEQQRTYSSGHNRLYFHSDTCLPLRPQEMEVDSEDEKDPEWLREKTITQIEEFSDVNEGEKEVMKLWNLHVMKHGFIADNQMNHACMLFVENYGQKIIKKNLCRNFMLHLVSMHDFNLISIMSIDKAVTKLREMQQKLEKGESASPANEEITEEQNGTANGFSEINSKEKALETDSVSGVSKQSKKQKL
EZH2, sequence (Q09028 whole entry partner): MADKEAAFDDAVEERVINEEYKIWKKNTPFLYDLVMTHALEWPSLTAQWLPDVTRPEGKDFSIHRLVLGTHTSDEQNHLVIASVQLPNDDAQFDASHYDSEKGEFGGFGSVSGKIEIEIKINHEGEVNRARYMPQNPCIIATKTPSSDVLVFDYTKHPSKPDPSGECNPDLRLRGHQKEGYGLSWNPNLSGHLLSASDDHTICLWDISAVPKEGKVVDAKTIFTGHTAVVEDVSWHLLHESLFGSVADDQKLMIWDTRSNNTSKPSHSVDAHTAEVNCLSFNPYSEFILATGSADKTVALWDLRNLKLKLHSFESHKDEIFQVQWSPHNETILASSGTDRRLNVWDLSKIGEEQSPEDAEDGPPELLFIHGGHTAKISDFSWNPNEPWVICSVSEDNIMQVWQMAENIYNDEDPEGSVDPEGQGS

SMILES: Cc1cc(CN2CCC(N3CCCCC3)CC2)c(CNC(=O)c2cc(Br)cc3c2cnn3C2CCCC2)c(=O)[nH]1 [Compound D-79]
- IC50: 1 to 3 µM

SMILES: Cc1cc(CN(C)CCCN(C)C)c(CNC(=O)c2cccc3c2cnn3C2CCCC2)c(=O)[nH]1 [Compound D-80]
- IC50: 1 to 3 µM

SMILES: Cc1cc(CN(C)C)c(CNC(=O)c2cccc3c2cnn3C2CCCC2)c(=O)[nH]1 [Compound D-81]
- IC50: 3 to 10 µM

SMILES: Cc1cc(CN2CCCC2)c(CNC(=O)c2cccc3c2cnn3C2CCCC2)c(=O)[nH]1 [Compound D-82]
- IC50: 3 to 10 µM

SMILES: CNCc1cc(C)[nH]c(=O)c1CNC(=O)c1cccc2c1cnn2C1CCCC1 [Compound D-83]
- IC50: 3 to 10 µM

SMILES: Cc1cc(CN2CCOCC2)c(CNC(=O)c2cccc3c2cnn3C2CCCC2)c(=O)[nH]1 [Compound D-84]
- IC50: 3 to 10 µM

SMILES: Cc1cc(COCCN(C)C)c(CNC(=O)c2cc(Br)cc3c2cnn3C2CCCC2)c(=O)[nH]1 [Compound D-85]
- IC50: 3 to 10 µM

SMILES: Cc1cc(COCCCN(C)C)c(CNC(=O)c2cccc3c2cnn3C2CCCC2)c(=O)[nH]1 [Compound D-86]
- IC50: 3 to 10 µM

SMILES: Cc1cc(C)c(CNC(=O)c2cc(COCCCN(C)C)cc3c2cnn3C2CCCC2)c(=O)[nH]1 [Compound D-87]
- IC50: 3 to 10 µM

SMILES: Cc1cc(CO)c(CNC(=O)c2cccc3c2cnn3C2CCCC2)c(=O)[nH]1 [Compound D-88]
- IC50: 10 to 50 µM

SMILES: Cc1cc(CNCC2CCOCC2)c(CNC(=O)c2cccc3c2cnn3C2CCCC2)c(=O)[nH]1 [Compound D-89]
- IC50: 10 to 50 µM

SMILES: Cc1cc(COCCCN(C)C)c(CNC(=O)c2cc(Br)cc3c2cnn3C2CCCC2)c(=O)[nH]1 [Compound D-90]
- IC50: 10 to 50 µM

SMILES: Cc1cc(C)c(CNC(=O)c2cc(CN3CCC[C@@H]3C(N)=O)cc3c2cnn3C2CCCC2)c(=O)[nH]1 [Compound D-93]
- IC50: 0.3 to 1 µM

SMILES: Cc1cc(C)c(CNC(=O)c2cc(CN3CCNC(=O)C3)cc3c2cnn3C2CCCC2)c(=O)[nH]1 [Compound D-94]
- IC50: 0.3 to 1 µM

SMILES: Cc1cc(C)c(CNC(=O)c2cc(C3=CCN(CCO)CC3)cc3c2cnn3C2CCCC2)c(=O)[nH]1 [Compound D-95]
- IC50: < 0.3 µM

SMILES: Cc1cc(C)c(CNC(=O)c2cc(C3CCN(CCN)CC3)cc3c2cnn3C2CCCC2)c(=O)[nH]1 [Compound D-96]
- IC50: < 0.3 µM

SMILES: Cc1cc(C)c(CNC(=O)c2cc(C3CCN(CCO)CC3)cc3c2cnn3C2CCCC2)c(=O)[nH]1 [Compound D-97]
- IC50: < 0.3 µM

SMILES: Cc1cc(C)c(CNC(=O)c2cc(Br)cc3c2cnn3C2CCN(C(=O)C3CCC3)CC2)c(=O)[nH]1 [Compound D-98]
- IC50: 0.3 to 1 µM

SMILES: Cc1cc(C)c(CNC(=O)c2cccc3c2ccn3C(C)C)c(=O)[nH]1 [Compound E-1]
- IC50: 1 to 3 µM

SMILES: Cc1cc(C)c(CNC(=O)c2cc(-c3ccc(CN4CCOCC4)cc3)cc3c2ccn3C2CCCC2)c(=O)[nH]1 [Compound E-2]
- IC50: < 0.3 µM

SMILES: Cc1cc(C)c(CNC(=O)c2ccnc3c2ccn3C(C)C)c(=O)[nH]1 [Compound F-1]
- IC50: 3 to 10 µM
